# What was measured:
# [1] = tested on: Staphylococcus aureus; test: Antimicrobial activity against methicillin-resistant Staphylococcus aureus 514/11 after 18 hrs by two-fold serial microdilution method; format: functional; settings: 514/11, 18 h
# [2] = tested on: Staphylococcus aureus; test: Antimicrobial activity against methicillin-resistant Staphylococcus aureus 522/12 after 18 hrs by two-fold serial microdilution method; format: functional; settings: 522/12, 18 h
# [3] = tested on: Staphylococcus aureus; test: Antimicrobial activity against Staphylococcus aureus ATCC 29213 after 18 hrs by two-fold serial microdilution method; format: functional; settings: ATCC 29213, 18 h
# [4] = tested on: Staphylococcus epidermidis; test: Antimicrobial activity against methicillin-resistant Staphylococcus epidermidis 488/11 after 18 hrs by two-fold serial microdilution method; format: functional; settings: 488/11, 18 h
# [5] = Selectivity index, ratio of IC50 for mouse BALB/3T3 cells to IC50 for human SW707 cells; format: functional
# [6] = Selectivity index, ratio of IC50 for mouse BALB/3T3 cells to IC50 for human LS180 cells; format: functional
# [7] = tested on: Staphylococcus aureus; test: Antimicrobial activity against methicillin-resistant Staphylococcus aureus 462/11 after 18 hrs by two-fold serial microdilution method; format: functional; settings: 462/11, 18 h
# [8] = Selectivity index, ratio of IC50 for mouse BALB/3T3 cells to IC50 for human LoVo/DX cells; format: functional
# [9] = tested on: Staphylococcus aureus; test: Antimicrobial activity against methicillin-resistant Staphylococcus aureus 452/11 after 18 hrs by two-fold serial microdilution method; format: functional; settings: 452/11, 18 h
# [10] = tested on: Staphylococcus epidermidis; test: Antimicrobial activity against Staphylococcus epidermidis ATCC 12228 after 18 hrs by two-fold serial microdilution method; format: functional; settings: ATCC 12228, 18 h
# [11] = tested on: LoVo; test: Resistance index, ratio of IC50 for human LoVo/DX cells to IC50 for human LoVo cells
# [12] = tested on: Staphylococcus aureus; test: Antimicrobial activity against methicillin-resistant Staphylococcus aureus 585/12 after 18 hrs by two-fold serial microdilution method; format: functional; settings: 585/12, 18 h
# [13] = tested on: HT-29; test: Selectivity index, ratio of IC50 for mouse BALB/3T3 cells to IC50 for human HT-29 cells; format: functional
# [14] = tested on: Staphylococcus epidermidis; test: Antimicrobial activity against methicillin-resistant Staphylococcus epidermidis 468/11 after 18 hrs by two-fold serial microdilution method; format: functional; settings: 468/11, 18 h
# [15] = tested on: BALB/3T3; test: Antiproliferative activity against mouse BALB/3T3 cells assessed as growth inhibition after 72 hrs by SRB method; format: cell-based; settings: BALB/3T3, 72 h
# [16] = tested on: Staphylococcus epidermidis; test: Antimicrobial activity against methicillin-resistant Staphylococcus epidermidis 466/11 after 18 hrs by two-fold serial microdilution method; format: functional; settings: 466/11, 18 h
# [17] = tested on: Staphylococcus epidermidis; test: Antimicrobial activity against methicillin-resistant Staphylococcus epidermidis 469/11 after 18 hrs by two-fold serial microdilution method; format: functional; settings: 469/11, 18 h
# [18] = Selectivity index, ratio of IC50 for mouse BALB/3T3 cells to IC50 for human HL60/Vinc cells; format: functional
# [19] = tested on: LoVo; test: Antiproliferative activity against human LoVo cells assessed as growth inhibition after 72 hrs by SRB method; format: functional, cell-based; settings: Homo sapiens, LoVo, 72 h
# [20] = tested on: LoVo; test: Selectivity index, ratio of IC50 for mouse BALB/3T3 cells to IC50 for human LoVo cells; format: functional
# [21] = Antiproliferative activity against human vincristine-resistant HL60/Vinc cells assessed as growth inhibition after 72 hrs by MTT assay; format: functional
# [22] = Antiproliferative activity against human SW707 cells assessed as growth inhibition after 72 hrs by SRB method; format: functional, cell-based; settings: Homo sapiens, SW707, 72 h
# [23] = Antiproliferative activity against human LS180 cells assessed as growth inhibition after 72 hrs by SRB method; format: functional, cell-based; settings: Homo sapiens, LS180, 72 h
# [24] = tested on: Staphylococcus epidermidis; test: Antimicrobial activity against methicillin-resistant Staphylococcus epidermidis 467/11 after 18 hrs by two-fold serial microdilution method; format: functional; settings: 467/11, 18 h
# [25] = tested on: Staphylococcus aureus; test: Antimicrobial activity against methicillin-resistant Staphylococcus aureus 586/12 after 18 hrs by two-fold serial microdilution method; format: functional; settings: 586/12, 18 h
# [26] = tested on: Staphylococcus epidermidis; test: Antimicrobial activity against methicillin-resistant Staphylococcus epidermidis 460/11 after 18 hrs by two-fold serial microdilution method; format: functional; settings: 460/11, 18 h
# [27] = tested on: HT-29; test: Antiproliferative activity against human HT-29 cells assessed as growth inhibition after 72 hrs by SRB method; format: functional, cell-based; settings: Homo sapiens, HT-29, 72 h
# [28] = tested on: Staphylococcus aureus; test: Antimicrobial activity against Staphylococcus aureus ATCC 6538 after 18 hrs by two-fold serial microdilution method; format: functional; settings: ATCC 6538, 18 h
# [29] = tested on: Staphylococcus aureus; test: Antimicrobial activity against methicillin-resistant Staphylococcus aureus 572/12 after 18 hrs by two-fold serial microdilution method; format: functional; settings: 572/12, 18 h
# [30] = tested on: Staphylococcus aureus; test: Antimicrobial activity against Staphylococcus aureus ATCC 25923 after 18 hrs by two-fold serial microdilution method; format: functional; settings: ATCC 25923, 18 h
# [31] = tested on: Staphylococcus epidermidis; test: Antimicrobial activity against Staphylococcus epidermidis ATCC 35984 after 18 hrs by two-fold serial microdilution method; format: functional; settings: ATCC 35984, 18 h
# [32] = tested on: Staphylococcus aureus; test: Antimicrobial activity against methicillin-resistant Staphylococcus aureus 537/12 after 18 hrs by two-fold serial microdilution method; format: functional; settings: 537/12, 18 h
# [33] = tested on: HL-60; test: Selectivity index, ratio of IC50 for mouse BALB/3T3 cells to IC50 for human HL60 cells; format: functional
# [34] = tested on: Staphylococcus aureus; test: Antimicrobial activity against methicillin-resistant Staphylococcus aureus 573/12 after 18 hrs by two-fold serial microdilution method; format: functional; settings: 573/12, 18 h
# [35] = tested on: Staphylococcus epidermidis; test: Antimicrobial activity against methicillin-resistant Staphylococcus epidermidis 459/11 after 18 hrs by two-fold serial microdilution method; format: functional; settings: 459/11, 18 h
# [36] = Antiproliferative activity against human HL60 cells assessed as growth inhibition after 72 hrs by MTT assay; format: functional, cell-based; settings: HL-60, 72 h
# [37] = tested on: Staphylococcus aureus; test: Antimicrobial activity against methicillin-resistant Staphylococcus aureus 456/11 after 18 hrs by two-fold serial microdilution method; format: functional; settings: 456/11, 18 h
# [38] = tested on: Staphylococcus aureus; test: Antimicrobial activity against Staphylococcus aureus […] 4163 after 18 hrs by two-fold serial microdilution method; format: functional
# [39] = tested on: HL-60; test: Resistance index, ratio of IC50 for human HL60/Vinc cells to IC50 for human HL60 cells
# [40] = Antiproliferative activity against human doxorubicin-resistant LoVo/DX cells assessed as growth inhibition after 72 hrs by SRB method; format: functional, cell-based
# [41] = tested on: Staphylococcus epidermidis; test: Antimicrobial activity against methicillin-resistant Staphylococcus epidermidis 461/11 after 18 hrs by two-fold serial microdilution method; format: functional; settings: 461/11, 18 h
# [42] = tested on: Staphylococcus epidermidis; test: Antimicrobial activity against methicillin-resistant Staphylococcus epidermidis 470/11 after 18 hrs by two-fold serial microdilution method; format: functional; settings: 470/11, 18 h
# [43] = tested on: Staphylococcus epidermidis; test: Antimicrobial activity against methicillin-resistant Staphylococcus epidermidis 489/11 after 18 hrs by two-fold serial microdilution method; format: functional; settings: 489/11, 18 h
structure (smiles),measurement,setting,value
O=c1[nH]c(=O)n([C@H]2C[C@H](O)[C@@H](CO)O2)cc1F [FLOXURIDINE],MIC,[1],≤ 0.016 µM
same,MIC,[2],≤ 0.016 µM
same,MIC,[3],≤ 0.016 µM
same,MIC,[4],≤ 0.016 µM
same,Selectivity Index,[5],1
same,Selectivity Index,[6],0.17
same,MIC,[7],≤ 0.016 µM
same,Selectivity Index,[8],1.43
same,MIC,[9],≤ 0.016 µM
same,MIC,[10],≤ 0.016 µM
same,Ratio IC50,[11],0.87
same,MIC,[12],≤ 0.016 µM
same,Selectivity Index,[13],0.21
same,MIC,[14],≤ 0.016 µM
same,IC50,[15],23.9 µM
same,MIC,[16],≤ 0.016 µM
same,MIC,[17],≤ 0.016 µM
same,Selectivity Index,[18],1.37
same,IC50,[19],19.1 µM
same,Selectivity Index,[20],1.25
same,IC50,"[21]; Homo sapiens, HL60/vinc, 72 h",17.4 µM
same,IC50,[22],23.9 µM
same,IC50,[23],140 µM
same,MIC,[24],≤ 0.016 µM
same,MIC,[25],≤ 0.016 µM
same,MIC,[26],≤ 0.016 µM
same,IC50,[27],115 µM
same,MIC,[28],≤ 0.016 µM
same,MIC,[29],≤ 0.016 µM
same,MIC,[30],≤ 0.016 µM
same,MIC,[31],≤ 0.016 µM
same,MIC,[32],≤ 0.016 µM
same,Selectivity Index,[33],99.58
same,MIC,[34],≤ 0.016 µM
same,MIC,[35],≤ 0.016 µM
same,IC50,[36],0.24 µM
same,MIC,[37],≤ 0.016 µM
same,MIC,[38],≤ 0.016 µM
same,Ratio IC50,[39],72.5
same,IC50,[40],16.7 µM
same,MIC,[41],≤ 0.016 µM
same,MIC,[42],≤ 0.016 µM
same,MIC,[43],≤ 0.016 µM
CC[C@@H](C(=O)[C@@H](C)[C@@H](O)[C@H](C)[C@@H]1O[C@@H]([C@@H](CC)C(=O)NCc2cn([C@H]3C[C@H](n4cc(F)c(=O)[nH]c4=O)O[C@@H]3CO)nn2)CC[C@@H]1C)[C@H]1O[C@]2(C=C[C@@H](O)[C@]3(CC[C@@](C)([C@H]4CC[C@](O)(CC)[C@H](C)O4)O3)O2)[C@H](C)C[C@@H]1C,MIC,[1],242 µM
same,MIC,[2],242 µM
same,MIC,[3],60.4 µM
same,MIC,[4],121 µM
same,Selectivity Index,[5],0.85
same,Selectivity Index,[6],0.9
same,MIC,[7],60.4 µM
same,Selectivity Index,[8],0.42
same,MIC,[9],60.4 µM
same,MIC,[10],30.2 µM
same,Ratio IC50,[11],1.71
same,MIC,[12],121 µM
same,Selectivity Index,[13],0.98
same,MIC,[14],60.4 µM
same,IC50,[15],29.6 µM
same,MIC,[16],30.2 µM
same,MIC,[17],60.4 µM
same,IC50,[19],41.2 µM
same,Selectivity Index,[20],0.72
same,inhibition (INH),[21],20%
same,IC50,[22],35 µM
same,IC50,[23],32.8 µM
same,MIC,[24],60.4 µM
same,MIC,[25],121 µM
same,MIC,[26],30.2 µM
same,IC50,[27],30.1 µM
same,MIC,[28],30.2 µM
same,MIC,[29],242 µM
same,MIC,[30],30.2 µM
same,MIC,[31],30.2 µM
same,MIC,[32],242 µM
same,Selectivity Index,[33],1.03
same,MIC,[34],60.4 µM
same,MIC,[35],30.2 µM
same,IC50,[36],28.7 µM
same,MIC,[37],60.4 µM
same,MIC,[38],30.2 µM
same,IC50,[40],70.4 µM
same,MIC,[41],30.2 µM
same,MIC,[42],30.2 µM
same,MIC,[43],30.2 µM
O=C(O)c1cn(C2CC2)c2cc(N3CCNCC3)c(F)cc2c1=O [CIPROFLOXACIN],MIC,[1],96.7 µM
same,MIC,[2],96.7 µM
same,MIC,[9],96.7 µM
same,MIC,[10],0.76 µM
same,MIC,[28],0.76 µM
same,MIC,[34],96.7 µM
same,MIC,[37],96.7 µM
same,MIC,[38],0.76 µM
same,MIC,[41],0.76 µM
same,MIC,[43],0.76 µM
